Columns and labels:
HT29 = experiment: In vitro anti-tumor activity, MTT method; type: cell-based; conditions: Homo sapiens, HT-29, 96-hour treatment, read-out: Antiproliferative Activity (IC50 ± SD, μM) HT29
[1] = test system: human prostate cancer cells LNCAP; experiment: In vitro anti-tumor activity, MTT method; type: cell-based; conditions: 96-hour treatment, read-out: Antiproliferative Activity (IC50 ± SD, μM) LNCAP
Protocol: (§1) The inhibitory effects of the compounds against human non-small cell lung cancer cell lines A549, NCI-H1650, human small cell lung cancer cell lines H446, human prostate cancer cells DU145, PC-3, LNCAP, human colon cancer cells lines HCT116, human breast cancer cells MDA-MB-231, and MCF7 tumor cell lines were determined using the MTT method.
(§2) The method was as follows. The cells in the exponential growth phase were collected to count living cells. The concentration of the cell suspension was adjusted using the corresponding medium of each group of cells. The cell suspension was added to the 96-well culture plate at 100 μL per cell, and the plate was placed in a 5% CO2 incubator at 37° C. and incubated for 24 h. Each test compound was dissolved in DMSO to prepare a stock solution with a corresponding concentration. Then, each stock solution was diluted 500-fold with the medium to prepare 4 replicate wells. 100 μL of the corresponding 500-fold solution was added to each well per cell line, with the final DMSO concentration of 0.1%. […] The half-maximal (relative to the DMSO control group) inhibition rate was calculated using the software GraphPad Prism 4.

[2] = test system: human colon cancer cell line HCT116; experiment: In vitro anti-tumor activity, MTT method; type: cell-based; conditions: HCT-116, 96-hour treatment, read-out: Antiproliferative Activity (IC50 ± SD, μM) HCT116
Protocol: as §1, §2

[3] = test system: human non-small cell lung cancer cell line NCI-H1650; experiment: In vitro anti-tumor activity, MTT method; type: cell-based; conditions: 96-hour treatment, read-out: Antiproliferative Activity (IC50 ± SD, μM) H1650
Protocol: as §1, §2

[4] = test system: human non-small cell lung cancer cell line A549; experiment: In vitro anti-tumor activity, MTT method; type: cell-based; conditions: Homo sapiens, A549, 96 h, 96-hour treatment
Protocol: as §1, §2

[5] = test system: human breast cancer cells MDA-MB-231; experiment: In vitro anti-tumor activity, MTT method; type: cell-based; conditions: MDA-MB-231, MTT, 96-hour treatment, read-out: Antiproliferative Activity (IC50 ± SD, μM) MDA-MB-231
Protocol: as §1, §2

[6] = test system: human small cell lung cancer cell line H446; experiment: In vitro anti-tumor activity, MTT method; type: cell-based; conditions: NCI-H446, 96-hour treatment, read-out: Antiproliferative Activity (IC50 ± SD, μM) H446
Protocol: as §1, §2

[7] = test system: human prostate cancer cells PC-3; experiment: In vitro anti-tumor activity, MTT method; type: cell-based; conditions: Homo sapiens, 96 h, PC-3, MTT, 96-hour treatment
Protocol: as §1, §2

[8] = test system: human breast cancer cells MCF7; experiment: In vitro anti-tumor activity, MTT method; type: cell-based; conditions: Homo sapiens, MCF7, 96 h, MCF-7, MTT, 96-hour treatment
Protocol: as §1, §2

[9] = test system: human prostate cancer cells DU145; experiment: In vitro anti-tumor activity, MTT method; type: cell-based; conditions: Homo sapiens, DU-145, 96 h, 96-hour treatment
Protocol: as §1, §2

HDAC = HDAC inhibitory activity assay (FRET); type: biochemical; conditions: for IC50: HDAC, FRET, read-out: Half-maximal inhibitory concentration (IC50 ± SD); for Inhibition rate: test concentration 100 nM, relative to DMSO control
Protocol: The HDAC inhibitory activity of the synthesized compounds was determined by fluorescence resonance energy transfer (FRET), and then compared with that of the positive control to screen out compounds with better activity. HDAC was obtained by purification or purchased directly.
The method was as follows.
An enzyme was added to reaction wells, a reaction buffer was added to control wells, a sample dissolved in DMSO was added to the reaction wells, and the wells were incubated using a contactless nanoflow sonic pipetting system (Ech-550; nanoflow). A fluorescent substrate was added to each reaction well and then rotated and shaken. The wells were incubated for 1-2 h at 30° C. under a sealed condition. A TMP26-containing chromogenic agent was added to terminate the reaction and produce fluorescence. The fluorescence intensity was detected using En Vision multi-label microplate detector (Perkin Elmer) (excitation light: 490 nm, emitted light: 520 nm). After the stabilization of color development, the endpoint value was read. The percentage (relative to the DMSO control group) inhibition rate was calculated using the software GraphPad Prism 4.

SMILES	IC50 (HT29) [µM]	IC50 [1] [µM]	IC50 [2] [µM]	IC50 [3] [µM]	IC50 [4] [nM]	IC50 [5] [µM]	IC50 [6] [µM]	IC50 [7] [nM]	IC50 [8] [nM]	IC50 [9] [nM]	IC50 (HDAC) [nM]	Inhibition rate (HDAC)
COc1ccccc1/C=C1\CC(=O)N(CCCCCCC(=O)NO)C1=O [Example I-31, (E)-7-(3-(2-methoxybenzal)-2,5-diketopyrrolidinyl)-N-hydroxyheptamide]	1.05 ± 0.1	0.63 ± 0.12	0.47 ± 0.01	3.56 ± 0.1	1390 ± 60	0.31 ± 0.05	0.65 ± 0.05	820 ± 90	350 ± 20	160 ± 40	12.6 ± 0.15	
COc1cccc(/C=C2\CC(=O)N(CCCCCCC(=O)NO)C2=O)c1 [Example I-32, (E)-7-(3-(3-methoxybenzal)-2,5-diketopyrrolidinyl)-N-hydroxyheptamide]					1240 ± 210			920 ± 30	880 ± 90	400 ± 40	18.5 ± 0.19	
O=C(CCCCCCN1C(=O)C/C(=C\c2ccccc2)C1=O)N[C@H]1CCCC[C@@H]1O [Example I-13, 7-(3-((E)-benzal)-2,5-diketopyrrolidinyl)-N-((1S,2S)-2-hydroxycyclohexyl)heptamide]					> 20000			> 20000	> 20000	> 20000		0%
O=C(CCCCCCN1C(=O)C/C(=C\c2cccs2)C1=O)NO [Example I-23, (E)-7-(3-(2-methylenethienyl)-2,5-diketopyrrolidinyl)-N-hydroxyheptamide]					3440 ± 150			910 ± 70	970 ± 50	540 ± 100		84.9% ± 0.5%
COc1ccc(/C=C2\CC(=O)N(CCCCCCC(=O)NO)C2=O)cc1OC [Example I-34, (E)-7-(3-(3,4-dimethoxybenzal)-2,5-diketopyrrolidinyl)-N-hydroxyheptamide]					1230 ± 170			880 ± 100	820 ± 90	450 ± 120		85.3% ± 7.2%

Further lines, with some results ahead:

IC50 (HT29) [µM]	IC50 [1] [µM]	IC50 [2] [µM]	IC50 [3] [µM]	IC50 [4] [nM]	IC50 [5] [µM]	IC50 [6] [µM]	IC50 [7] [nM]	IC50 [8] [nM]	IC50 [9] [nM]	IC50 (HDAC) [nM]	SMILES	Inhibition rate (HDAC)
1.22 ± 0.1	1.51 ± 0.22	0.86 ± 0.08	6.6 ± 0.57	1330 ± 230	0.99 ± 0.11	0.77 ± 0.1	1440 ± 100	580 ± 30	480 ± 60	19.3 ± 0.11	O=C(CCCCCCN1C(=O)C/C(=C\c2ccccc2Cl)C1=O)NO [Example I-24, (E)-7-(3-(2-chlorobenzal)-2,5-diketopyrrolidinyl)-N-hydroxyheptamide]	
				1780 ± 200			890 ± 50	510 ± 70	340 ± 40	16.7 ± 0.21	CCOc1ccccc1/C=C1\CC(=O)N(CCCCCCC(=O)NO)C1=O [Example I-38, (E)-7-(3-(2-ethoxybenzal)-2,5-diketopyrrolidinyl)-N-hydroxyheptamide]	
				> 10000			1730 ± 200	1880 ± 140	3880 ± 40		COc1cc(/C=C2\CC(=O)N(CCCCCCC(=O)NO)C2=O)cc(OC)c1O [Example I-36, (E)-7-(3-(4-hydroxy-3,5-dimethoxybenzal)-2,5-diketopyrrolidinyl)-N-hydroxyheptamide]	74.8% ± 2.8%
1.69 ± 0.1	1.48 ± 0.2	0.91 ± 0.11	4.42 ± 0.72	1800 ± 140	0.98 ± 0.11	0.7 ± 0.1	1290 ± 140	980 ± 20	340 ± 30		O=C(CCCCCCN1C(=O)C/C(=C\c2ccc3ccccc3c2)C1=O)NO [Example I-22, (E)-7-(3-(2-methylenenaphthyl)-2,5-diketopyrrolidinyl)-N-hydroxyheptamide]	89.4% ± 0.9%
				2200 ± 260			890 ± 120	690 ± 90	570 ± 40		O=C(CCCCCCN1C(=O)C/C(=C\c2ccc(Cl)cc2)C1=O)NO [Example I-26, (E)-7-(3-(4-chlorobenzal)-2,5-diketopyrrolidinyl)-N-hydroxyheptamide]	86.6% ± 0.4%

Source: patent US20260124191A1, “HISTONE DEACETYLASE INHIBITOR AND USES THEREOF” (NANJING HONGSHUN PHARMACEUTICAL TECHNOLOGY CO., LTD, priority 2023, published 2026)
